From PubChem BioAssay AID1259407 (Chemical Carcinogenesis Research Information System (CCRIS), 2018)
Active and inactive are the calls of the source. The rule behind the calls is not given here.

System: CCRIS mutagenicity, Ames/micronucleus/aberration tests
Assay: CCRIS mutagenicity studies
Settings: Test System: AMES SALMONELLA TYPHIMURIUM

O=c1oc2cc([N+](=O)[O-])ccc2c2ccccc12
mutagenic call (Strain/Indicator: TA98(1,8-DNP6), Metabolic Activation: NONE, Method: MICROSUSPENSION): active; positive | mutagenic call (Strain/Indicator: TA98(1,8-DNP6), Metabolic Activation: NONE, Method: PREINCUBATION): active; positive | mutagenic call (Strain/Indicator: TA98(1,8-DNP6), Metabolic Activation: NONE, Method: STANDARD PLATE): active; positive | mutagenic call (Strain/Indicator: TA98(NR), Metabolic Activation: NONE, Method: MICROSUSPENSION): active; positive | mutagenic call (Strain/Indicator: TA98(NR), Metabolic Activation: NONE, Method: PREINCUBATION): active; positive | mutagenic call (Strain/Indicator: TA98(NR), Metabolic Activation: NONE, Method: STANDARD PLATE): active; positive | mutagenic call (Strain/Indicator: TA98(NR), Metabolic Activation: RAT LIVER S-9 (15%), Method: PREINCUBATION): active; positive | mutagenic call (Strain/Indicator: TA98(NR), Metabolic Activation: RAT LIVER S-9, 3-METHYLCHOLANTHRENE, Method: PREINCUBATION): active; positive | mutagenic call (Strain/Indicator: TA98(NR), Metabolic Activation: RAT LIVER S-9, BETA-NAPHTHOFLAVONE (15%), Method: PREINCUBATION): active; positive | mutagenic call (Strain/Indicator: TA98(NR), Metabolic Activation: RAT LIVER S-9, PCB (15%), Method: PREINCUBATION): active; positive | mutagenic call (Strain/Indicator: TA98(NR), Metabolic Activation: RAT LIVER S-9, PHENOBARBITAL (15%), Method: PREINCUBATION): active; positive | mutagenic call (Strain/Indicator: TA98(NR), Metabolic Activation: RAT, LIVER, S-9, AROCLOR 1254, Method: STANDARD PLATE): active; positive | mutagenic call (Strain/Indicator: TA98, Metabolic Activation: NONE, Method: MICROSUSPENSION): active; positive | mutagenic call (Strain/Indicator: TA98, Metabolic Activation: NONE, Method: PREINCUBATION): active; positive | mutagenic call (Strain/Indicator: TA98, Metabolic Activation: NONE, Method: STANDARD PLATE): active; positive | mutagenic call (Strain/Indicator: TA98, Metabolic Activation: RAT, LIVER, S-9, AROCLOR 1254, Method: MICROSUSPENSION): active; positive | mutagenic call (Strain/Indicator: TA98, Metabolic Activation: RAT, LIVER, S-9, AROCLOR 1254, Method: STANDARD PLATE): active; positive | mutagenic call (Strain/Indicator: TA100, Metabolic Activation: NONE, Method: MICROSUSPENSION): active; positive | mutagenic call (Strain/Indicator: TA100, Metabolic Activation: NONE, Method: PREINCUBATION): active; positive | mutagenic call (Strain/Indicator: TA100, Metabolic Activation: NONE, Method: STANDARD PLATE): active; positive | mutagenic call (Strain/Indicator: TA100, Metabolic Activation: RAT LIVER S-9, 3-METHYLCHOLANTHRENE (15%), Method: PREINCUBATION): active; positive | mutagenic call (Strain/Indicator: TA100, Metabolic Activation: RAT, LIVER, S-9, AROCLOR 1254, Method: MICROSUSPENSION): active; positive | mutagenic call (Strain/Indicator: TA100, Metabolic Activation: RAT, LIVER, S-9, AROCLOR 1254, Method: STANDARD PLATE): active; positive | mutagenic call (Strain/Indicator: TA1535, Metabolic Activation: NONE, Method: STANDARD PLATE): active; positive | mutagenic call (Strain/Indicator: TA1535, Metabolic Activation: RAT, LIVER, S-9, AROCLOR 1254, Method: STANDARD PLATE): active; positive | mutagenic call (Strain/Indicator: TA1537, Metabolic Activation: NONE, Method: STANDARD PLATE): active; positive | mutagenic call (Strain/Indicator: TA1537, Metabolic Activation: RAT, LIVER, S-9, AROCLOR 1254, Method: STANDARD PLATE): active; positive | mutagenic call (Strain/Indicator: TA1538, Metabolic Activation: NONE, Method: STANDARD PLATE): active; positive | mutagenic call (Strain/Indicator: TA1538, Metabolic Activation: RAT, LIVER, S-9, AROCLOR 1254, Method: STANDARD PLATE): active; positive | mutagenic call (Strain/Indicator: TA7001, Metabolic Activation: NONE, Method: PREINCUBATION): inactive; negative | mutagenic call (Strain/Indicator: TA7001, Metabolic Activation: RAT LIVER S-9, 3-METHYLCHOLANTHRENE (15%), Method: PREINCUBATION): inactive; negative | mutagenic call (Strain/Indicator: TA7002, Metabolic Activation: NONE, Method: PREINCUBATION): active; positive | mutagenic call (Strain/Indicator: TA7002, Metabolic Activation: RAT LIVER S-9, 3-METHYLCHOLANTHRENE, Method: PREINCUBATION): active; positive | mutagenic call (Strain/Indicator: TA7003, Metabolic Activation: NONE, Method: PREINCUBATION): inactive; negative | mutagenic call (Strain/Indicator: TA7003, Metabolic Activation: RAT LIVER S-9, 3-METHYLCHOLANTHRENE, Method: PREINCUBATION): inactive; negative | mutagenic call (Strain/Indicator: TA7004, Metabolic Activation: NONE, Method: PREINCUBATION): active; positive | mutagenic call (Strain/Indicator: TA7004, Metabolic Activation: RAT LIVER S-9, 3-METHYLCHOLANTHRENE, Method: PREINCUBATION): active; positive | mutagenic call (Strain/Indicator: TA7005, Metabolic Activation: NONE, Method: PREINCUBATION): active; positive | mutagenic call (Strain/Indicator: TA7005, Metabolic Activation: RAT LIVER S-9, 3-METHYLCHOLANTHRENE, Method: PREINCUBATION): active; positive | mutagenic call (Strain/Indicator: TA7006, Metabolic Activation: NONE, Method: PREINCUBATION): active; positive | mutagenic call (Strain/Indicator: TA7006, Metabolic Activation: RAT LIVER S-9, 3-METHYLCHOLANTHRENE, Method: PREINCUBATION): active; positive
